# Patent US11389544B2, “Formation of functionalized cancer targeting nanoparticles by supramolecular co-assembly” (RAMOT AT TEL-AVIV UNIVERSITY LTD., priority 2016, dated 2022)
# Test system: human pancreatic cancer cells (Panc-1)
# Assay: Live cell imaging by confocal microscopy, binding/uptake to Panc-1 cells
# Format: cell-based
# Settings: Panc-1, 2 h incubation, carboxyfluorescein loaded
# Method: Carboxyfluorescein was encapsulated during the preparation of the nanoparticles. Following two hours of incubation with Panc-1 cancer cells, the cells were treated with concanavalin A (Con A) Alexa Fluor 647 conjugate. Live cell imaging analysis was performed by confocal microscopy (FIGS. 8 and 13). […] These findings support the proposed model for the co-assembly of the two peptides. As assumed, the co-assembly with Boc-FF which serves as a spacer, enabled the binding of PTR analog to the somatostatin receptor (FIG. 2b).
# Panc-1 and HEK-293T cells were cultured (100,000 cells) on a cell culture dish with a glass bottom (35 mm, Greiner Bio-one). In the following day cells were incubated for two hours at 37° C. under various conditions: carboxyfluorescein (15 μM), Boc-FF (0.12 mM) and carboxyfluorescein (15 μM), Fmoc-FF-PEG2-PTR (0.3 mM) encapsulated with carboxyfluorescein (15 μM), PTR-3207-86 (0.3 mM), Fmoc-FF-PEG2-PTR (0.3 mM):Boc-FF (1:4) nanospheres encapsulated with carboxyfluorescein (15 μM). After incubation, cells were washed with PBS buffer and were treated with 10 μg/ml Concanavalin A (Con A) Alexa Fluor 647 Conjugate (Invitrogen, Carlsbad, Calif.) for 15 minutes and washed again with PBS. Live cell imaging was conducted using LSM 510 Meta confocal laser scanning microscope (Carl Zeiss, Jena, Germany).
substance,measurement,value
carboxyfluorescein,fluorescence observed in cells (binding/uptake),No fluorescence was observed
